Assay results published in patent US20190350931A1, “COMBINATION THERAPY” (GlaxoSmithKline Intellectual Property Development Limited, priority 2016, published 2019).

Experiments:
[1] = target: PRMT5/MEP50 (Homo sapiens, UniProt O14744); assay: PRMT5/MEP50 radioactive assay, 3H transfer from SAM to H4 peptide / protein substrate; format: biochemical; settings: close analogs of Compound C
[2] = test system: Type I and Type II PRMTs and lysine methyltransferases (KMTs); assay: Methyltransferase selectivity panel (19 enzymes); format: biochemical; settings: for selectivity for PRMT5/MEP50 over the other methyltransferases: PRMT5 tool compounds
Description: FIG. 6: Phylogenetic tree highlighting the methyltransferases tested in the selectivity panel. […] PRMT9 is shown for relationship purposes only within the family tree and was not evaluated in the panel. Figure adapted from Richon V M. et al.
PRMT9/FBXO11, which is the other Type II PRMT and the only PRMT to lack the THW loop, was not included due to the lack of a functional enzyme assay.

[3] = test system: breast and MCL cell lines; assay: Longer-term (10-12 day) growth/death assay in breast and MCL cell lines; format: cell-based; settings: for response upon prolonged exposure: SKBR3, MDA-MB-468 and MCF-7 cells, 7-10 days
[4] = test system: SDMA, MDM4 splicing, p53 in GBM and lymphoma cell lines; assay: SDMA, MDM4 splicing and p53 in GBM and lymphoma cell lines; format: cell-based; settings: 1 μM
Experimental: Next, effects on cellular methylation and the p53 pathway were evaluated in GBM cells treated with a PRMT5 inhibitor by measuring SDMA, p53 and p21 protein levels and MDM4 splicing (FIG. 27). […] Alternative MDM4 splicing was detected in all cell lines but SF539 which are p53 mutant and have low basal expression of the long MDM4 isoform (FIG. 27, panel A). p53 levels increased in all cell lines, while the induction of p21 protein was observed only in cell lines that have wild-type p53 (Z138 (MCL), U87-MG and A172 (GBM)). […] The role of p53 in the response of GBM cell lines to PRMT5 inhibition will be further tested in future studies. Additionally, the effects of PRMT5 inhibition on cell cycle and neural differentiation in GBM models are being explored.

[5] = test system: lymphoma cell lines (Z138, Granta-519, DOHH2, RL); assay: RNA-sequencing of lymphoma cell lines; format: cell-based
Experimental: FIG. 12: Gene expression changes in lymphoma cell lines treated with a PRMT5 inhibitor. A. Quantification of differentially expressed (DE) genes in lymphoma cell lines after Compound B (0.1 and 0.5 μM) treatment (days 2 and 4). B. Overlap of DE genes across lymphoma lines.
A. Mechanisms of regulation of cellular splicing (adapted from Bezzi M. et al.). B. Analysis of intron expression in lymphoma lines treated with 0.1 or 0.5 μM Compound B.
A. Quantification of isoform switches in 4 lymphoma cell lines treated with Compound B (0.1 and 0.5 μM) for 2 and 4 days. B. Overlap of isoform switches in 4 lymphoma lines. C. List of genes that undergo alternative splicing in all 4 lymphoma lines (overlap of 4 cell lines).
PRMT5 methylates histones and proteins involved in RNA processing and therefore PRMT5 inhibition is expected to have a profound effect on cellular mRNA homeostasis. To further decipher cellular mechanisms that are regulated by PRMT5 and contribute to the cellular response to PRMT5 inhibitors, global gene expression changes were evaluated in lymphoma models sensitive to PRMT5 inhibition. […]
First, gene expression changes were evaluated in lymphoma lines treated with increasing concentrations of PRMT5 tool molecule for 2 and 4 days (FIG. 12). […] The relevance of these genes in the mechanism of cellular response to PRMT5 inhibition is being evaluated. […]

[6] = test system: MDM4 splicing, p53 and p21 in MCL lines; assay: MDM4 splicing (RT-PCR) and p53/p21 western in MCL lines; format: cell-based; settings: for p53 and p21 expression: Z138 cells, 200 nM Compound C, 5 μM Nutlin-3
Experimental: To understand whether p53 activation is associated with MDM4 isoform switching, MDM4 alternative splicing was analyzed. […] The role of the p53 pathway in the biology of the response of p53 wild-type MCL cells to PRMT5 inhibition is being evaluated.

[7] = test system: panel of cancer cell lines; format: cell-based
Description: DLBCL-diffuse large B-cell lymphoma, GBM-glioblastoma, MCL-mantle cell lymphoma, MM-multiple myeloma
The cell lines were selected to represent tumor types where PRMT5 activity has been reported to regulate key pathways and/or cell growth and survival (such as lymphoma and MCL, glioma, breast and lung cancer lines).

[8] = test system: MCL cell lines; assay: 6-day growth/death assay in a panel of MCL lines; format: cell-based
Description: FIG. 18: Activity of PRMT5 inhibitor and ibrutinib as single agents and in combination in MCL cell lines. […] C.
• The strongest mechanistic link currently described between PRMT5 and cancer is in MCL. PRMT5 is frequently overexpressed in MCL and is highly expressed in the nuclear compartment where it increases levels of histone methylation and silences a subset of tumor suppressor genes. Importantly, cyclin D1, the oncogene that is translocated in the vast majority of MCL patients, associates with PRMT5 and through a cdk4-dependent mechanism increases PRMT5 activity. PRMT5 mediates the suppression of key genes that negatively regulate DNA replication allowing for cyclin D1-dependent neoplastic growth. PRMT5 knockdown inhibits cyclin D1-dependent cell transformation causing death of tumor cells.

[9] = test system: GBM cell lines; assay: 2D 6-day growth/death CTG assay in GBM cell lines; format: cell-based; settings: with the exception of SF539
[10] = test system: SDMA, MDM4 splicing, p53/p21 in Z138 cells; assay: Dose-response of MDM4 splicing, SDMA and p53/p21 in Z138 cells; format: cell-based
[11] = test system: Z-138 MCL xenograft; assay: 21-day efficacy study in Z-138 MCL xenograft model; format: in vivo
Experimental: B. Quantified SDMA western data from tumors harvested at the end of the efficacy study (3 hours post last dose).

[12] = test system: breast cancer lines; assay: Propidium iodide FACS cell cycle analysis of breast cancer lines; format: cell-based
[13] = test system: MDA-MB-468 xenograft; assay: MDA-MB-468 triple negative breast cancer xenograft model; format: in vivo
Experimental: Next, the efficacy of PRMT5 inhibition was evaluated in in vivo models of breast cancer.

[14] = test system: GBM cell lines; assay: 2D 14-day growth/death CTG assay in GBM cell lines; format: cell-based; settings: only SF539 underwent apoptosis
[15] = Z-138 (MCL) cells, all time points (days 3-10)
[16] = ZR-75-1 cells, all time points (days 3-12)

PRMT5/MEP50, sequence (O14744 whole entry): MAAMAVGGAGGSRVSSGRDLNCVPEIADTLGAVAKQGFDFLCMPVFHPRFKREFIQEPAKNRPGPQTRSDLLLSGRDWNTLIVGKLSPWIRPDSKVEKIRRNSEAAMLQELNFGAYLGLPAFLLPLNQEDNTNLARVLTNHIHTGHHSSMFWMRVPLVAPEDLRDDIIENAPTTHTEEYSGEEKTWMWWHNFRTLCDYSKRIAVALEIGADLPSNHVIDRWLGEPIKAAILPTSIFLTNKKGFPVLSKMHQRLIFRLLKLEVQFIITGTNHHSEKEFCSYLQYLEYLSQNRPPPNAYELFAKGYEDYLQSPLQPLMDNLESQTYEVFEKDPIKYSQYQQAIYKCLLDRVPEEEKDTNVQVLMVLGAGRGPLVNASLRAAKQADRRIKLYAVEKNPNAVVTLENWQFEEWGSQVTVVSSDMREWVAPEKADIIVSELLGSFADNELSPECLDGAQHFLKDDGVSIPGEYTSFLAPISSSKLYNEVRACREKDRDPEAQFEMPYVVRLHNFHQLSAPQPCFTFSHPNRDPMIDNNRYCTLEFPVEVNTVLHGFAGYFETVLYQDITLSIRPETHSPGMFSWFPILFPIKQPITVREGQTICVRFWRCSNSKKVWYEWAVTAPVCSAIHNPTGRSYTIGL
PRMT5/MEP50, sequence (Q9BQA1 whole entry partner): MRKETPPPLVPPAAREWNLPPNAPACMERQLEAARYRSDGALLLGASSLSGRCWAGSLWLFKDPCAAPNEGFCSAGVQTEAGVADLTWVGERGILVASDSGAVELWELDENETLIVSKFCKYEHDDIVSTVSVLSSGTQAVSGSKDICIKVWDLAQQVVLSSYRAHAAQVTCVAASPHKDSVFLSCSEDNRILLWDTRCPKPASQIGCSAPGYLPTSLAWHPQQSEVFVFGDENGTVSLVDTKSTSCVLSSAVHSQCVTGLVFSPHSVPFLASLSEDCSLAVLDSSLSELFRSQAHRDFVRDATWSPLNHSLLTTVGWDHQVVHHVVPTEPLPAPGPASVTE

O=C(NC[C@H](O)CN1CCc2ccccc2C1)c1ccnc(NC2CCC2)c1 [Compound B]
inhibitory potency compared with Compound C [1]: similar
selectivity for PRMT5/MEP50 over the other methyltransferases [2]: Selectivity for PRMT5/MEP50 over the other methyltransferases was also observed
response upon prolonged exposure [3]: cytotoxic response
response [3, 15]: profound overall net cell death
response [3, 16]: cytostatic response
MDM4 splicing [4]: induces alternative splicing of MDM4
SDMA levels [4]: decreases SDMA levels
p53 [4]: activates p53
isoform switching ([5]; 0.1 and 0.5 μM, 2 and 4 days): induces isoform switching for a subset of genes
intron splicing ([5]; 0.1 or 0.5 μM): attenuates the splicing of a subset of introns

O=C(NC[C@H](O)CN1CCc2ccccc2C1)c1cc(NC2COC2)ncn1 [Compound E]
inhibitory potency compared with Compound C [1]: similar
selectivity for PRMT5/MEP50 over the other methyltransferases [2]: Selectivity for PRMT5/MEP50 over the other methyltransferases was also observed

CC(=O)N1CCC(Nc2cc(C(=O)NC[C@H](O)CN3CCc4ccccc4C3)ccn2)CC1 [Compound F]
inhibitory potency compared with Compound C [1]: similar
selectivity for PRMT5/MEP50 over the other methyltransferases [2]: Selectivity for PRMT5/MEP50 over the other methyltransferases was also observed

COc1ccc(C2=N[C@@H](c3ccc(Cl)cc3)[C@@H](c3ccc(Cl)cc3)N2C(=O)N2CCNC(=O)C2)c(OC(C)C)c1 [Nutlin-3, reference compound]
p53 and p21 expression [6]: increased p53 and p21 expression to similar levels

CC(=O)N1CCC(Nc2cc(C(=O)NC[C@H](O)CN3CCc4ccccc4C3)ncn2)CC1 [Compound C]
potency for any other tested enzyme ([2]; FIG. 6 legend): > 10^−5 M
growth response of breast cancer cell lines ([7]; 6-day growth/death assay): complete growth inhibition
gIC50 ([7]; most sensitive lymphoma lines (MCL and DLBCL)): single digit
sensitivity (gIC50) of Z-138, Maver-1 and JVM-2 [8]: low
sensitivity of Mino, Jeko-1 [8]: only moderately sensitive
nature of the response [9]: largely cytostatic
MDM4 isoform switching ([6]; Z138 and JVM-2 cells (both p53 wild-type)): induced MDM4 isoform switching
p53 and p21 expression [6]: increased p53 and p21 expression to similar levels
MDM4 RNA splicing and SDMA/p53/p21 levels [10]: induces dose-dependent changes
concentration above which SDMA levels were undetectable by Western blot [10]: above 8 nM
concentration above which changes in MDM4 splicing and p53/p21 protein expression were apparent [10]: above 8 nM
body weight loss ([11]; all groups in all efficacy studies presented): no body weight loss
TGI ([11]; summary for the xenograft models of mantle cell lymphoma): ~100%
response upon prolonged exposure [3]: cytotoxic response
response [3, 15]: profound overall net cell death
response [3, 16]: cytostatic response
cell death (increase in <2N) ([12]; 3 out of 4 breast cancer lines, after 7-10 days of treatment): induction of cell death
cell cycle distribution ([12]; MCF-7 cells (p53 wild-type), day 2): accumulation of cells in G1 phase (2N)
cell cycle distribution ([12]; MDA-MB-468 and SKBR-3, day 7 or day 10): decrease in G1 (2N) phase
cell cycle distribution ([12]; ZR-75-1 cells (p53 wild-type)): minor effects on cell cycle distribution
tumor growth inhibition (TGI) ([13]; 100 mg/kg BID): 83%
efficacy ([13]; 100 mg/kg QD): not efficacious
nature of the cytostatic/cytotoxic response upon longer exposure [14]: did not change
